BigSolDB 2.1

CCCCOc1ccc(C(=O)CCN2CCCCC2)cc1.Cl
solubility (mole fraction)
Details	278.15 K	283.15 K	288.15 K	293.15 K	298.15 K	303.15 K	308.15 K	313.15 K	318.15 K	323.15 K
in DMF	0.0201	0.0227	0.0256	0.0291	0.0328	0.0371	0.0421	0.0475	0.0539	0.0608
in THF	0.00088	0.00098	0.00108	0.00119	0.00133	0.00147	0.00162	0.0018	0.002	0.00221
in acetone	0.0121	0.0148	0.018	0.0218	0.0263	0.0321	0.0389	0.0474	0.0574	0.0695
in ethanol	0.062	0.07	0.0786	0.0882	0.0987	0.111	0.124	0.14	0.157	0.175
in ethyl acetate	0.00638	0.00791	0.00983	0.012	0.0146	0.0181	0.0223	0.0276	0.0338	0.0415
in methanol	0.0804	0.0905	0.103	0.116	0.131	0.147	0.166	0.188	0.212	0.238
in n-hexane	0.00084	0.00095	0.00108	0.00122	0.00137	0.00155	0.00175	0.00198	0.00224	0.00253
in water	0.0296	0.0339	0.039	0.045	0.0514	0.059	0.0674	0.0774	0.0888	0.102
